Experimental data as given in patent publication US20260284168A1, “RNA FOR PREVENTING OR TREATING TUBERCULOSIS” (priority 2023, published 2026).

System: Caspase-1
Format: cell-based
Details: 50 μM

In the case of CCO[C@@H]1OC(=O)C[C@@H]1NC(=O)[C@@H]1CCCN1C(=O)[C@@H](NC(=O)c1ccc(N)c(Cl)c1)C(C)(C)C [VX765], the “effect of Caspase-1 inhibitor on IL-1β release” value is reported as “inhibited IL-1ß release”.
